These results are taken from ChEMBL document CHEMBL3046361, “Coumarin: a potential nucleus for anti-inflammatory molecules” (Med Chem Res, 2013).

The subject of assay [1] is Rattus norvegicus. Put plainly: Anti-inflammatory activity in Rattus norvegicus (rat) assessed as inhibition of carrageenan-induced paw edema relative to control. It counts as functional. A general note: Carrageenan injected into the paw causes an acute inflammation.
Assay [2] deals with Rattus norvegicus. Put plainly: Anti-inflammatory activity in Rattus norvegicus (rat) assessed as inhibition of carrageenan-induced paw edema at 100 mg/kg, po relative to control. Type of assay: functional.
For assay [3], the system named is Rattus norvegicus. Kind of assay: Anti-inflammatory activity in Rattus norvegicus (rat) assessed as inhibition of carrageenan-induced paw edema at […] relative to control. Type of assay: functional.
For assay [4], the target named is T1, Seed linoleate 13S-lipoxygenase-1 (Glycine max) (UniProt P08170).
T1 sequence (whole entry): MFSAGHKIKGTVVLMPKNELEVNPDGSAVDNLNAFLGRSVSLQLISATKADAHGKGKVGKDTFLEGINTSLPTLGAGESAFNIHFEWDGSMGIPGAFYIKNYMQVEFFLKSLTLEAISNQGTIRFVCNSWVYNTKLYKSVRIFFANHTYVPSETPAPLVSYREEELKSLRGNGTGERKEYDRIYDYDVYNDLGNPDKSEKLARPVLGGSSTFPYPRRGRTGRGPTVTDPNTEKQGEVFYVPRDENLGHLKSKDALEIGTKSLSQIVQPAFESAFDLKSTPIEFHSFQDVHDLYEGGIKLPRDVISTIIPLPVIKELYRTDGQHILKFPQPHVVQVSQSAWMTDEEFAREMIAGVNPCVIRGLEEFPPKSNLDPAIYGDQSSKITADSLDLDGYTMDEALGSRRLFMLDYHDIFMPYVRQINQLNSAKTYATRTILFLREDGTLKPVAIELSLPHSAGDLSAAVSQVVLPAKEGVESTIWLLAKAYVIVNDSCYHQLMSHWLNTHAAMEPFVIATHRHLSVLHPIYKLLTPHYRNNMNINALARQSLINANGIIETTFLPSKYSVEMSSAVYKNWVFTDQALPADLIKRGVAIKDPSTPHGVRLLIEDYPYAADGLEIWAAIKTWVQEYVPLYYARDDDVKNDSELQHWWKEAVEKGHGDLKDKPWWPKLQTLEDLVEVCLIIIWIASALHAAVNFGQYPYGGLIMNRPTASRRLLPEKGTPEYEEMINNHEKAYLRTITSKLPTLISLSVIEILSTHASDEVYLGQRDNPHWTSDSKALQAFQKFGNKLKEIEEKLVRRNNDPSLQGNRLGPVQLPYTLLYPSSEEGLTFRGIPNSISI
Put plainly: Inhibition of Glycine max (soybean) lipooxygenase.

Assay [5] concerns PBMC. Kind of assay: Anti-inflammatory activity in Homo sapiens (human) PBMC assessed as inhibition of LPS-induced TNFalpha production. It counts as functional, cell-based.
For assay [6], the target named is Prostaglandin G/H synthase 1 (Homo sapiens) (UniProt P23219). Put plainly: Inhibition of COX1 (unknown origin). The conditions noted are these: concentration not given here.
Sequence of Prostaglandin G/H synthase 1 (Homo sapiens) (P23219 whole entry): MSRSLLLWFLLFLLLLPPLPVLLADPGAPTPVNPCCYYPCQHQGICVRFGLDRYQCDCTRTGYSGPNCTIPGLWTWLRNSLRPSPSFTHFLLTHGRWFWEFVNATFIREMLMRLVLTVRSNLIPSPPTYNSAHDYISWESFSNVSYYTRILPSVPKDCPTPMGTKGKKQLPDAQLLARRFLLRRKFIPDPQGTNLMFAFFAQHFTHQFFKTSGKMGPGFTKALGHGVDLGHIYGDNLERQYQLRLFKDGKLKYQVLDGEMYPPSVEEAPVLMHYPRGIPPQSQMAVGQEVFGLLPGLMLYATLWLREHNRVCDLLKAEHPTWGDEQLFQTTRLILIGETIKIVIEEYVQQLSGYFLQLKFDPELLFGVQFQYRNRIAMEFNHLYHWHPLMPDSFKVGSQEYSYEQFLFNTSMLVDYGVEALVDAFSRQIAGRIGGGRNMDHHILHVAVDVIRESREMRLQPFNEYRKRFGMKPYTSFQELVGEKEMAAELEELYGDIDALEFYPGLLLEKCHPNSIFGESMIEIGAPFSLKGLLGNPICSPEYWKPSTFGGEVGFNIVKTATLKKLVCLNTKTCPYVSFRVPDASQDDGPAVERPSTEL
Assay [7] has as its system Rattus norvegicus. Kind of assay: Anti-inflammatory activity in Rattus norvegicus (rat) assessed as inhibition of carrageenan-induced paw edema at 0.1 mmoles/kg relative to control. It counts as functional. As to conditions: read-out: INH.
Assay [8] deals with Rattus norvegicus. Put plainly: Anti-inflammatory activity in albino Rattus norvegicus (rat) assessed as inhibition of carrageenan-induced paw edema at 100 mg/kg, po administered 30 min prior to carrageenan-challenge measured after 5 hr relative to control. Type of assay: functional.
For assay [9], the system named is Rattus norvegicus. Kind of assay: Anti-inflammatory activity in albino Rattus norvegicus (rat) assessed as inhibition of carrageenan-induced paw edema at 10 mg/kg, po administered 30 min prior to carrageenan-challenge measured after 5 hr relative to control. Type of assay: functional.
For assay [10], the system named is Rattus norvegicus. Put plainly: Anti-inflammatory activity in albino Rattus norvegicus (rat) assessed as inhibition of carrageenan-induced paw edema at 10 mg/kg, po administered 1 hr prior to carrageenan-challenge measured after 3 hr relative to control. Type of assay: functional.

Consider `CCCC(=O)N/N=C/c1coc2ccccc2c1=O`, for which the “inhibition (INH)” value in assay [1] came to 80.78%. On the same count and under the same terms, then `CN/N=C/c1ccc2ccc(=O)oc2c1`, with 54%. With `O=c1oc2ccccc2cc1/N=C/c1ccc(Cl)cc1`, the inhibition in vivo at 100 mg/kg in assay [2] was found to be 75%. For the compound `COc1ccc(-c2cc(-c3c(OC)ccc4c(C)cc(=O)oc34)no2)cc1`, in [3], the “inhibition (INH)” value was determined as 72%. Regarding `COC(=O)/N=C(/N)c1cc(=O)oc2ccccc12`, in assay [4], the inhibition (in general, the change of the read-out against control, counted positive when it falls) is 76%. For `O=c1oc2ccccc2cc1/N=C/c1ccc(Cl)c(Cl)c1`, in assay [2], the inhibition in vivo at 100 mg/kg came to 60%. In turn, `Cc1cc(=O)oc2cc(NCCN(CCN)CCN)ccc12` yielded an inhibition in [4] of 92.4%. As to `CN(C)C(=O)Oc1cc2oc(=O)c(-c3cccnc3)cc2cc1Cl`, the concentration for half-maximal inhibition (IC50) (in general, the concentration at which inhibition is half-maximal) in assay [5] was found to be 450 nM. `Cc1c/c(=N\c2ccc([N+](=O)[O-])cc2)oc2cc(O)ccc12`: the inhibition in [6] amounted to 39%.

In the case of `CN(C)N/C(=N/O)c1cc(=O)oc2ccccc12`, the “inhibition (INH)” value in assay [1] is on record as >80%. In the case of `CCNC(=O)Nc1ccc(-c2cc3ccc(OC(=O)N(CC)CC)cc3oc2=O)cc1`, in assay [5], the IC50 is 320 nM. Turning to `CCN(CC)C(=O)Oc1ccc2c(C)c(Cc3ccc(F)cc3)c(=O)oc2c1`, the half-maximal inhibitory concentration (IC50) in assay [5] is 2400 nM. For the compound `O=C(O)c1ccccc1NC(=O)c1cc2cc(Cl)ccc2oc1=O`, the “inhibition (INH)” value in assay [1] was 54%. Take `CCOC(=O)c1cc(=O)oc2c3c(c4ccccc4c12)OC(C)(C)[C@@H](O)[C@H]3OC(=O)c1cccc(Cl)c1`: in assay [7], the inhibition in vivo at 100 µmol/kg worked out at 59%. In [4], the inhibition came out at 100%. `CC1=NC(c2cc(=O)oc3ccccc23)NO1` (stereo unspecified) displayed an inhibition in assay [4] of 77%.

As to `CC(=O)N1N=C(c2cc3cc(Br)ccc3oc2=O)CC1c1ccc([N+](=O)[O-])cc1` (stereo unspecified), in [8], the inhibition in vivo at 100 mg/kg turned out to be 66.5%. For `CO/N=C/c1ccc2ccc(=O)oc2c1`, the “inhibition (INH)” value in [1] is recorded as 54%. Turning to `N/C(=N/C(=O)Oc1ccccc1)c1cc(=O)oc2ccccc12`, the “inhibition (INH)” value in [1] is >80%. In the case of `COc1ccc2c(c1)c(CC(=O)O)c(C)n2C(=O)c1ccc(Cl)cc1` [INDOMETHACIN], the inhibition in vivo at 10 mg/kg worked out at 71% in [9] and 56.5% in assay [10]. On to `CCOC(=O)c1cc(=O)oc2c3c(c4ccccc4c12)OC(C)(C)[C@@H](O)[C@H]3O`, for which the inhibition in vivo at 100 µmol/kg in assay [7] was determined as 59%. The inhibition in [4] came to 100%. For the compound `O=c1ccc2ccc(/C=N/O)cc2o1`, the inhibition in assay [6] turned out to be 78.6%. With `COc1ccc2c(C)cc(=O)oc2c1-c1cc(-c2ccc(Cl)cc2)on1`, the “inhibition (INH)” value in assay [3] is reported as 68%. Regarding `COc1ccc2c(C3=NOSN3c3ccccc3)cc(=O)oc2c1`, in assay [10], the inhibition in vivo at 10 mg/kg worked out at 55.3%.
